Laboratory results: ChEMBL document CHEMBL1201862, “PubChem BioAssay data set” (2004)
The source made the active and inactive calls.

Key:
[1] = biological target: T1, Methionyl-tRNA synthetase, putative (Trypanosoma brucei brucei, UniProt Q38C91); assay type: functional, Trypanosoma brucei brucei strain 927/4 GUTat10.1
T1 sequence (Q38C91 whole entry): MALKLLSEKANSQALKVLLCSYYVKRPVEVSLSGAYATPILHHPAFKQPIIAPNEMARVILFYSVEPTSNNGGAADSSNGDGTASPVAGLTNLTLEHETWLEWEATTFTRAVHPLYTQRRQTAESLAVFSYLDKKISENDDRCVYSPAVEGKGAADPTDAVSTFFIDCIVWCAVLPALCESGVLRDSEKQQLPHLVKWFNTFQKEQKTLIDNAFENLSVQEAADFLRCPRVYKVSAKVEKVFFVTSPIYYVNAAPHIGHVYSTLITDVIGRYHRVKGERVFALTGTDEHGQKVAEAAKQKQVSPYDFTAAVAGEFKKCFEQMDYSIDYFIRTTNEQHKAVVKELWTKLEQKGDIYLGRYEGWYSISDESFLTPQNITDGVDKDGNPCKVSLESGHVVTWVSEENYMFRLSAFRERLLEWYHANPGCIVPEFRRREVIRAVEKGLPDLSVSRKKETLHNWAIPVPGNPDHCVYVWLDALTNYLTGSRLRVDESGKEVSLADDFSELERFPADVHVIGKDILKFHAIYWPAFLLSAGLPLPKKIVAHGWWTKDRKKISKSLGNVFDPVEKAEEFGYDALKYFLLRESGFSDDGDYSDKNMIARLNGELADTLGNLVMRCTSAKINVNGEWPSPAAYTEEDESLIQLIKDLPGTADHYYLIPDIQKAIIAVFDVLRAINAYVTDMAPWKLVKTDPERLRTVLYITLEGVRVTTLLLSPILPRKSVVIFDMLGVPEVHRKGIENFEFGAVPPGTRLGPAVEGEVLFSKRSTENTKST

[2] = Counterscreen for inhibitors of Trypanosoma brucei methionyl tRNA synthetase (MetRS): Luminescence-based cell-based high throughput dose response assay to identify compounds that are cytotoxic to Jurkat human T lymphocyte cells.; assay type: functional
[3] = biological target: T1, Methionyl-tRNA synthetase, putative; assay type: functional, Trypanosoma brucei brucei strain 927/4 GUTat10.1; remark: listed apart in the source
[4] = biological target: T2, RNA-binding protein pos-1 (Caenorhabditis elegans, UniProt G5EF15); assay: inhibitors of POS-1/mex-3 RNA binding, dose response, biochemical, fluorescence polarization (AID 1964);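 further: purified POS-1 fused to maltose binding protein made in E. coli; potency of compounds blocking POS-1 binding to fluorescent RNA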
T2 sequence (G5EF15 whole entry): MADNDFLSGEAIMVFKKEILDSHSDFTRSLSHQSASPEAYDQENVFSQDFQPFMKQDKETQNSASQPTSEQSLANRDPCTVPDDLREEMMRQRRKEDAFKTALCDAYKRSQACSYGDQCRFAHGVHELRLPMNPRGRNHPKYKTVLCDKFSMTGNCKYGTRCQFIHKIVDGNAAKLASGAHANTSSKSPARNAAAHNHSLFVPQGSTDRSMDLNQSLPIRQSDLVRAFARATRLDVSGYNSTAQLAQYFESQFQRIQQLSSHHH

[5] = biological target: T3, Zinc finger protein mex-5 (Caenorhabditis elegans, UniProt Q9XUB2); assay: MEX-5/TCR-2 RNA interaction inhibitors, dose response, biochemical, C. elegans, fluorescence polarization (AID 1960)
T3 sequence (Q9XUB2 whole entry): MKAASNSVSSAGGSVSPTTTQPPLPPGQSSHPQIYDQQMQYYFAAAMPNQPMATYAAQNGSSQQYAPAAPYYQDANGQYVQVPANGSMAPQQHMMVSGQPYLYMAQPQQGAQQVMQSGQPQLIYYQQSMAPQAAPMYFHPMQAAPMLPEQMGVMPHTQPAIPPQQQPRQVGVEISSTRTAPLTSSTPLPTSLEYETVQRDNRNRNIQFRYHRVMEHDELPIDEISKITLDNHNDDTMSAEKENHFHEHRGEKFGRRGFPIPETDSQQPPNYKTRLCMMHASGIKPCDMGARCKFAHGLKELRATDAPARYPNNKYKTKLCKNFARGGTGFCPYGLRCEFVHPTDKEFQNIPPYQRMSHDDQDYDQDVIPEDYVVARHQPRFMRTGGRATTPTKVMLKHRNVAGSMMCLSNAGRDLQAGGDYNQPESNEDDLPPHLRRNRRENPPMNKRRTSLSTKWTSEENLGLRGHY

[6] = biological target: T4, Histone-lysine N-methyltransferase NSD2 (Homo sapiens, UniProt O96028); assay type: biochemical
T4 sequence (O96028 whole entry): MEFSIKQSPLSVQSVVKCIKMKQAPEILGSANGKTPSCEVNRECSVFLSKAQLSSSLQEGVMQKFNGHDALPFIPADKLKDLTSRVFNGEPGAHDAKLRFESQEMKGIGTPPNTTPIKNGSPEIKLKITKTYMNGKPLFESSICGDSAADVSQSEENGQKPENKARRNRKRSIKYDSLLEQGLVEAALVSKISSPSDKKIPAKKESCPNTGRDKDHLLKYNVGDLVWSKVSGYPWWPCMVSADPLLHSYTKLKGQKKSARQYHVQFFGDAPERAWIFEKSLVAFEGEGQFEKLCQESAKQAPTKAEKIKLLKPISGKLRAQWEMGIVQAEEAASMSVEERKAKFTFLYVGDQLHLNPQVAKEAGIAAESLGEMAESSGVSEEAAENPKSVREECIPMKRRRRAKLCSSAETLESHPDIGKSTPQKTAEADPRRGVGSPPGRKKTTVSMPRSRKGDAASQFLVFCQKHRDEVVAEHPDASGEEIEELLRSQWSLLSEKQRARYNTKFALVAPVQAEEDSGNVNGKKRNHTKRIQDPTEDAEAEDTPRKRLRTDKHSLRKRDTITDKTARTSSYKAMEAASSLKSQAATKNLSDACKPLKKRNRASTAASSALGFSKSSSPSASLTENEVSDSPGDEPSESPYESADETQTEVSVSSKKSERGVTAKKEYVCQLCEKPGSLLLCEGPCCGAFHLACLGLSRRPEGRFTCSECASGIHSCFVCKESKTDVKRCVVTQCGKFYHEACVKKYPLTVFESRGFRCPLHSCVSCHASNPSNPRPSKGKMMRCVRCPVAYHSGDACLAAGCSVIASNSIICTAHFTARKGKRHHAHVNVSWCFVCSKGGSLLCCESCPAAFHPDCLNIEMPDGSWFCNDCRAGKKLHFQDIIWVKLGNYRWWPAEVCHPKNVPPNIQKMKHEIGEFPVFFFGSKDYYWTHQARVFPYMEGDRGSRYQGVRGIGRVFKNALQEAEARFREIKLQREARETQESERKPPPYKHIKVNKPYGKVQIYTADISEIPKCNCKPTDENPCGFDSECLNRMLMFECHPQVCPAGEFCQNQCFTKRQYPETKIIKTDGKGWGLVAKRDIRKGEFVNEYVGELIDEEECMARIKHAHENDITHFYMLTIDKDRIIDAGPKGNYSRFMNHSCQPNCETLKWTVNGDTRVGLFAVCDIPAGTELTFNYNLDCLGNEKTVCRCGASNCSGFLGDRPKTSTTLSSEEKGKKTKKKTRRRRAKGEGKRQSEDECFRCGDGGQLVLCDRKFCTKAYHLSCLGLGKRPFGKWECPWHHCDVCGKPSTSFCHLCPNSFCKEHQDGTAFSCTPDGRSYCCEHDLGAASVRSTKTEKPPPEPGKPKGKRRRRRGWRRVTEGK

[7] = biological target: Arf-GAP with SH3 domain, ANK repeat and PH domain-containing protein 1 (Homo sapiens, UniProt Q9ULH1); assay type: functional;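 further: biochemical fluorescence polarization dose–response screen measuring inhibition of ASAP1; ASAP1 GAP domain stimulating GTP hydrolysis by truncated human ARF1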
Cytochrome P450 1A2 = biological target: T5, Cytochrome P450 1A2 (Homo sapiens, UniProt P05177);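 further: PubChem cytochrome P450 panel assay, CYP1A2 panel member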
T5 sequence (P05177 whole entry): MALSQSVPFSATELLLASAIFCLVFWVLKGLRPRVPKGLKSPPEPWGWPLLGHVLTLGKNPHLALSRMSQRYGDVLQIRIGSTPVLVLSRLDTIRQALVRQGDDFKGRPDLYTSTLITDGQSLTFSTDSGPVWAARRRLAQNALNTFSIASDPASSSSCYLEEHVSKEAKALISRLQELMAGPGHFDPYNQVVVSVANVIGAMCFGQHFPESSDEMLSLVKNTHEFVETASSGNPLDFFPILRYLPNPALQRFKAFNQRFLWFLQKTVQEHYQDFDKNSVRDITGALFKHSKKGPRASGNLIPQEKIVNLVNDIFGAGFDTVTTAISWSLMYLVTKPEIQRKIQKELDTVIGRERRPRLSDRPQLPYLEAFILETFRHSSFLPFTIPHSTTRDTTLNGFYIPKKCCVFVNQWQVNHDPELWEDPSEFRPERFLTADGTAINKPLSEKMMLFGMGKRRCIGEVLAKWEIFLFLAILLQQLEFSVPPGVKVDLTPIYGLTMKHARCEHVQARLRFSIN

Cytochrome P450 3A4 = Cytochrome P450 3A4 (Homo sapiens, UniProt P08684);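 further: CYP3A4 tested as one member of a cytochrome P450 panel screen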
[8] = biological target: T6, Heat shock factor protein 1 (Mus musculus, UniProt P38532); assay: inhibition of MG132-induced HSE-luciferase signal, confirmation, cell-based, NIH3T3, luminescence, dose retest (AID 2382); assay type: functional;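 further: NIH3T3 fibroblasts with HSF1-driven luciferase reporter stressed by proteasome inhibitor MG132; luminescence from HSF1-driven luciferase expression after 8 hours of MG132 stress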
T6 sequence (P38532 whole entry): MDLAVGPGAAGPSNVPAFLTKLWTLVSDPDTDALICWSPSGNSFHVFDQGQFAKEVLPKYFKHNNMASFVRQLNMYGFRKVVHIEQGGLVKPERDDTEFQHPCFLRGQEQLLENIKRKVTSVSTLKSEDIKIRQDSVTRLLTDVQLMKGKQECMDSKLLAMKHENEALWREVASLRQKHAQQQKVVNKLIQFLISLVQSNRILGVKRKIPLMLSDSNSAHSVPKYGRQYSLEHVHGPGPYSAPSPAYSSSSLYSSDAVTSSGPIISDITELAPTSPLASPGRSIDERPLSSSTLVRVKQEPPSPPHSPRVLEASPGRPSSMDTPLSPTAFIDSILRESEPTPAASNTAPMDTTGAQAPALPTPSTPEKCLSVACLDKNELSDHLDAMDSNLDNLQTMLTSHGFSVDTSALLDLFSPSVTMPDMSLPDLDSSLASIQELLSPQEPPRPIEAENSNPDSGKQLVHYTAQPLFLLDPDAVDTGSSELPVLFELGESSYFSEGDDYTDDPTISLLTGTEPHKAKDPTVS

[9] = biological target: DNA dC->dU-editing enzyme APOBEC-3A (Homo sapiens, UniProt P31941); assay: Dose Response confirmation of small molecule APOBEC3A DNA Deaminase Inhibitors via a fluorescence-based single-stranded DNA deaminase assay. [Related pubchem assays (depositor defined):AID493011, AID493024]; assay type: functional
[10] = biological target: DNA dC->dU-editing enzyme APOBEC-3G (Homo sapiens, UniProt Q9HC16); assay type: functional;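 further: Dose-response counterscreen measuring inhibition of APOBEC3G DNA deaminase activity, run while confirming APOBEC3A inhibitors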
[11] = biological target: T7, Long-chain-fatty-acid--AMP ligase FadD28 (Mycobacterium tuberculosis, UniProt P9WQ59); assay: Fluorescence polarization aasay to screen for inhibitors that compete for the binding of FadD28 to a bisubstrate Measured in Biochemical System Using Plate Reader - 2147-01_Inhibitor_Dose_CherryPick_Activity.; assay type: functional, Mycobacterium tuberculosis H37Rv
T7 sequence (P9WQ59 whole entry): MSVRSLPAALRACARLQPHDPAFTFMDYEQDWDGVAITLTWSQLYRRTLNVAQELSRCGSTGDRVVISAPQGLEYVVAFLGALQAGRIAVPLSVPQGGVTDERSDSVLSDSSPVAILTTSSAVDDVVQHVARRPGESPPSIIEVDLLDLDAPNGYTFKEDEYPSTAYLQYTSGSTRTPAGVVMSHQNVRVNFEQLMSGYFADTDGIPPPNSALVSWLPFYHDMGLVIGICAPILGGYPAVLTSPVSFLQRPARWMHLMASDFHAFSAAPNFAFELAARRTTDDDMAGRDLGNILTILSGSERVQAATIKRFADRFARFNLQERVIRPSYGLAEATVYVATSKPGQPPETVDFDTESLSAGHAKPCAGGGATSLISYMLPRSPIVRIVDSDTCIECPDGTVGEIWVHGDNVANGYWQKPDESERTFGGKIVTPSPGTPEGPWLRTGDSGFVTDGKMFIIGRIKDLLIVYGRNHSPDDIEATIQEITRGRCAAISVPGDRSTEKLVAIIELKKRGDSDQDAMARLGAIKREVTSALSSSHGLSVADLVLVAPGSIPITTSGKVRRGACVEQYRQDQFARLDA

cells [12] = assay type: functional, cell-based
cells [13] = assay type: functional, cell-based; remark: listed apart in the source

Chain of Arf-GAP with SH3 domain, ANK repeat and PH domain-containing protein 1 (Q9ULH1 whole entry, the tested form may be a part): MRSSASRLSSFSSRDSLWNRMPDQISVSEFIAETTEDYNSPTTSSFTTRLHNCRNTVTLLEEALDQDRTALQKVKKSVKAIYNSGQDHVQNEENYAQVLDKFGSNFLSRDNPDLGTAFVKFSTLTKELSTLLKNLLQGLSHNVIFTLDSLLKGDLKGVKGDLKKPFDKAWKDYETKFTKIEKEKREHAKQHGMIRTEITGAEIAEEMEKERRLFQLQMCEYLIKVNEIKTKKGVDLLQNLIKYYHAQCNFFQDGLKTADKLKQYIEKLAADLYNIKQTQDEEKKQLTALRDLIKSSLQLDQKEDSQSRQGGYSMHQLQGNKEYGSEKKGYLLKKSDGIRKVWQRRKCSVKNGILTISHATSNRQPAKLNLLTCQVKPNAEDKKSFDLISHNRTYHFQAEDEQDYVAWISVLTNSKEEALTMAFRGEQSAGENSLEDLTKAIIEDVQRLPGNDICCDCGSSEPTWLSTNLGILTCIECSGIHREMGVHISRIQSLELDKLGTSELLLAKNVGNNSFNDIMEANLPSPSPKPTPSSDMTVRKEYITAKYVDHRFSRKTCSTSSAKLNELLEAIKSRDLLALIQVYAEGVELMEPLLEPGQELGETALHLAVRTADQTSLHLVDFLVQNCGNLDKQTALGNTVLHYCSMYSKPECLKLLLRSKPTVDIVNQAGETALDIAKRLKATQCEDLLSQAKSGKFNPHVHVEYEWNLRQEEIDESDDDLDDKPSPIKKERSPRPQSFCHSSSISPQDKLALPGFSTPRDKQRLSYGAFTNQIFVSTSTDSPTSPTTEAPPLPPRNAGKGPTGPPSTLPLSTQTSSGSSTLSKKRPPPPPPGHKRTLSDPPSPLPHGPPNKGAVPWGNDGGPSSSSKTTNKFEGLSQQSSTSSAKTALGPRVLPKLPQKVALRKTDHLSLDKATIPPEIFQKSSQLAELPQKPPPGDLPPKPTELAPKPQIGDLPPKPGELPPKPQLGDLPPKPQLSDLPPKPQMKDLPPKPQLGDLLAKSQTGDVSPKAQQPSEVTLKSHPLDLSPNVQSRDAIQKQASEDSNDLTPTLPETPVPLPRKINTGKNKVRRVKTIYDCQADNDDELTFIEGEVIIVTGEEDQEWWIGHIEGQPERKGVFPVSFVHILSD
Chain of DNA dC->dU-editing enzyme APOBEC-3A (P31941 whole entry): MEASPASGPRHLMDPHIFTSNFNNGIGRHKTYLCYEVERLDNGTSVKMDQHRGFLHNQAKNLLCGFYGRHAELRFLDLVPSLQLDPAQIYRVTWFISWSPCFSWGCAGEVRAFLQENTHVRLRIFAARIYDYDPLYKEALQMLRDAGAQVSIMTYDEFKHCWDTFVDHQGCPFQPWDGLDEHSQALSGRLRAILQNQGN
Chain of DNA dC->dU-editing enzyme APOBEC-3G (Q9HC16 whole entry): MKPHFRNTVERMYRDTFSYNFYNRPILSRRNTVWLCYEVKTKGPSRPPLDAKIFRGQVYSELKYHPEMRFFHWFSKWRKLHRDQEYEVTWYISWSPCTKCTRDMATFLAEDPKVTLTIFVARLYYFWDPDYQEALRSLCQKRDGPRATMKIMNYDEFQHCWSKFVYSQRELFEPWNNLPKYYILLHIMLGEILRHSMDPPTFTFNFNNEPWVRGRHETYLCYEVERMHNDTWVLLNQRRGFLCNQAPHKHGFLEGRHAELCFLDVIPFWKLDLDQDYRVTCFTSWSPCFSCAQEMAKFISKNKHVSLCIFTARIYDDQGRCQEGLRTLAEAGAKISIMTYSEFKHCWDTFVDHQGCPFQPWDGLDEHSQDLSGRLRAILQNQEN
Chain of Cytochrome P450 3A4 (P08684 whole entry): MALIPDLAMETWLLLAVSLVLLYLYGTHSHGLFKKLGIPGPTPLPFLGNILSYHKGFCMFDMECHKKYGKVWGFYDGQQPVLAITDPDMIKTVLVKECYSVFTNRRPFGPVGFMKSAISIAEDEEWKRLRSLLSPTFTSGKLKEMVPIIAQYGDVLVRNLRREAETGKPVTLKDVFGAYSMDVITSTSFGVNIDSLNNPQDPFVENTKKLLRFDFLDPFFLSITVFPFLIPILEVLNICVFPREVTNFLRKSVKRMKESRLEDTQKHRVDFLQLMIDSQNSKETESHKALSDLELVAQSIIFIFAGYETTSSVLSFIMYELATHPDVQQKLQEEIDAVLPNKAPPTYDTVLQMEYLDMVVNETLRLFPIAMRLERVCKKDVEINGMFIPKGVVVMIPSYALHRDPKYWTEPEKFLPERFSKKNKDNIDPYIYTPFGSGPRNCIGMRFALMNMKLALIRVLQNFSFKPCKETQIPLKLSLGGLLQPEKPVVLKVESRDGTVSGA

With `Cn1nc(C(F)(F)F)c(-c2cccc(C(F)(F)F)c2)c1NC(=O)Nc1ccc(F)cc1` the IC50 [1] was 119 µM (inactive), the IC50 [2] was 28.9 µM (inactive) and the IC50 [3] was 10.4 µM (inactive).
For `O=C(O)c1cccc(-n2cccc2/C=C\[N+](=O)[O-])c1`, the EC50 [4] was 83.7 µM (active), the EC50 [5] was 40.8 µM (active) and the AC50 [6] was > 20 µM (inactive).
With `CCOc1ccc(C(=O)Nc2cccc(-c3cc4ccccc4oc3=O)c2)cc1[N+](=O)[O-]` the IC50 [7] was 37.9 µM (inactive), the AC50 (Cytochrome P450 1A2) was 5.62 µM (inconclusive) and the AC50 (Cytochrome P450 3A4) was 10 µM (inconclusive).
For `O=C(COc1cccc(-n2cnnn2)c1)Nc1ccccc1`, the IC50 [1] was 76 µM (inactive), the IC50 [2] was 83.3 µM (inactive) and the IC50 [3] was 38.2 µM (inactive).
With `O=C(Cc1ccc(Cl)c(Cl)c1)Nc1cccc(S(=O)(=O)N2CCOCC2)c1` the IC50 [1] was 7.78 µM (active), the IC50 [2] was 34.8 µM (inactive) and the IC50 [3] was 4.48 µM (active).
With `CCOc1ccc2c(c1)[N+](C)(C)C(C)(C)C=C2C` the EC50 [8] was > 195 µM (not active), the IC50 [9] was 2.96 µM (active) and the IC50 [10] was 3.2 µM (active).
With `CCOC(=O)C1CCCN(C(=O)c2cc(Nc3ccc(OC)cc3)nc3ccccc23)C1` (configuration not stated) the AC50 [11] was 30.5 µM (active).
For `Oc1c(C(c2ccc(F)cc2)N2CCc3ccccc3C2)sc2ncnn12` (configuration not stated), the IC50 (cells [12]) was > 29.9 µM (inactive) and the EC50 (cells [13]) was > 29.9 µM (inactive).
For `OC(c1cc(Cl)cc(Cl)c1)c1nc(-c2cccc(F)c2)c[nH]1` (configuration not stated), the IC50 [1] was 10.6 µM (inactive), the IC50 [2] was 83.3 µM (inactive) and the IC50 [3] was 7.94 µM (active).
In the case of `COc1ccc(/C=N/CC2OCCc3ccccc32)cc1OC` (configuration not stated), the IC50 (cells [12]) is reported as > 29.9 µM (inactive) and the EC50 (cells [13]) is reported as > 29.9 µM (inactive).
With `Clc1ccc(Cn2cc(/C=N/n3cnnc3)c3ccccc32)c(Cl)c1` the IC50 [7] was 12.9 µM (inactive).
